For 77 compounds, cytotoxicity results are on record in ChEMBL document CHEMBL3507680, “University of Dundee, Gates Library screen for HepG2 cell viability”.

The nature of the data set: Human HepG2 cell viability assay in 384 well format. It counts as toxicity, cell-based. The note with it: HepG2 cells, read-out: Inhibition. Set-up: dose 125 nL, time 70.5 hour; concentration not given beside the values.

In the case of `O=c1c2ccccc2nc2n1C(CSc1ccc(Cl)cc1)CN2` (configuration not stated), the cytotoxicity at 70.5 h came to 2.49%.
Next, `COC(=O)c1ccc(Cn2nc(C)cc2C)cc1`: 12.9%.
Next, `CC(C(=O)NC1CC1)n1nc(-c2cccs2)cc(N)c1=O` (configuration not stated): 6.89%; `Nc1nc(SCc2ccc3c(c2)OCO3)ns1`: -0.0923%; `O=C(Cn1cnc2cc3c(cc21)OCCCO3)NCCc1ccccc1`: 0.395%.
For the compound `CC(C)N1CCCC1c1nc(N(C)C)ncc1I` (configuration not stated), the cytotoxicity at 70.5 h is -4.13%.
Next, `Nc1nccnc1C1CN(C(=O)COc2cccnc2)CCO1` (configuration not stated): 6.29%; `COCCN1CCC(C)(c2cc(O)[nH]n2)CC1`: -3.06%; `CCNC(=O)C1(Cc2cc(-c3ccccc3)no2)CCCN(C(C)C)C1` (configuration not stated): -6.54%.
Consider `O=C(c1ccc2[nH]nnc2c1)N1C[C@H](O)[C@]2(CCCO2)C1`, for which the cytotoxicity at 70.5 h is -1.24%.
With `CO[C@H]1CCN(C(=O)c2ccc3[nH]nnc3c2)C[C@@]12CCCO2`, the cytotoxicity at 70.5 h was -6.86%.
On to `O=c1c2ccccc2nc2n1C(CSc1cccc(C(F)(F)F)c1)CN2` (configuration not stated), for which the cytotoxicity at 70.5 h was -2.38%.
Next, `CN1CCN(c2ncccc2N)CC1`: -11.7%; `COc1nccc(C(F)(F)F)c1C(=O)O`: 0.892%.
As to `COC(=O)Cc1cn2cc(C(F)(F)F)ccc2n1`, the cytotoxicity at 70.5 h was determined as 13.2%.
With `CCOC(=O)[C@H]1CNC[C@@H]1C(F)(F)F`, the cytotoxicity at 70.5 h is -11.1%.
As for `O=c1[nH]c2ncccc2n1C1CCCCC1`, the cytotoxicity at 70.5 h is -6.95%.
Then `O=C(O)c1cn2cc(C(F)(F)F)ccc2n1`, with 2.77%; and `CC(O)c1cn(Cc2ccc(Cl)cc2)nn1` (configuration not stated), with -6.41%.
For the compound `CN(C)c1nc2ncc(Cl)cc2cc1C#N`, the cytotoxicity at 70.5 h is 22%.
On to `Cc1cc(CN(C)Cc2ncc(C(C)(C)C)o2)no1`, for which the cytotoxicity at 70.5 h came out at 18.2%.
For the compound `Cc1ccc(CN(C)Cc2ncc(C(C)(C)C)o2)o1`, the cytotoxicity at 70.5 h came to 0.445%.
`N#CCCN1CCN(S(=O)(=O)c2ccc(Cl)s2)CC1`: the cytotoxicity at 70.5 h was 15.9%.
Next, `O=C(NCc1nnc2n1CCCCC2)N(CC1CCOC1)C1CC1` (configuration not stated): 17.7%.
Regarding `O=S(=O)(c1ccc(F)cc1Cl)N1CCCC1c1ccncc1` (configuration not stated), the cytotoxicity at 70.5 h is -6.79%.
Turning to `COc1c(CNCCc2c[nH]c3cc(F)ccc23)c(C)nn1C`, the cytotoxicity at 70.5 h was found to be 3.85%.
Then `COc1c(CNCCc2c[nH]c3ccccc23)c(C)nn1C`, with 22.7%; and `CN(CCCOc1ccccc1)C(=O)c1csc(-c2nnc[nH]2)n1`, with -5.84%.
Turning to `Cn1cc(C2CCCN2C(=O)c2cnc(C3CC3)s2)cn1` (configuration not stated), the cytotoxicity at 70.5 h is -5%.
Then `Cn1cc(C2CCCN2C(=O)c2cnc(-c3ccccn3)s2)cn1` (configuration not stated), with 3.12%; and `COc1cccc(CN(C)C(=O)c2csc(-c3nnc[nH]3)n2)c1`, with -1.87%; and `COc1ccc(Br)cc1SCCCS(C)(=O)=O`, with -0.49%.
Next, `N#CCCn1cnc2c(F)cc(Br)cc2c1=O`: -3.98%; `COCCn1cnc2c(F)cc(Br)cc2c1=O`: -3.14%; `CC1c2ccc(F)cc2CCN1C(=O)c1nc(=O)[nH][nH]1` (configuration not stated): -6.25%.
For the compound `N#CCCCn1cnc2c(F)cc(Br)cc2c1=O`, the cytotoxicity at 70.5 h is -5.69%.
Then `N#CC(NC(=O)CCCOc1cccnc1)c1ccccc1Cl` (configuration not stated), with -3.34%; and `Cc1cc(CN(C)Cc2ncc(-c3ccccc3)o2)no1`, with -0.145%.
In the case of `CN(CC1CCOC1)c1ccc(Br)cn1` (configuration not stated), the cytotoxicity at 70.5 h stood at 29.9%.
Then `COc1c(CNCCc2c[nH]c3ccccc23)c(C(C)C)nn1C`, with 2.12%; and `Cc1ccc(-c2nc(CCNCc3ccncc3)co2)cc1`, with -6.27%; and `CC(C)N(C)CC(=O)NCc1ccccc1N1CCN(C)CC1`, with 9.3%.
As for `CCCN(CCn1c(=O)oc2ccccc21)CC1CC1`, the cytotoxicity at 70.5 h came out at 1.08%.
As to `CCOC(=O)CCN(Cc1cccnc1)C(=O)c1cc(Cl)c[nH]1`, the cytotoxicity at 70.5 h is -6.02%.
Then `CN1CCN(c2ccccc2CNC(=O)Cc2cccc(F)c2)CC1`, with 9.04%.
Take `CN1CCN(c2ccccc2CNC(=O)CSC(F)(F)F)CC1`: the cytotoxicity at 70.5 h was -6.98%.
Consider `O=C(c1c[nH]nn1)N1CCCC1C1CCCCC1` (configuration not stated), for which the cytotoxicity at 70.5 h is -8.52%.
Next, `CCc1nnsc1C(=O)NCCc1nnc2n1CCC2`: -7.69%; `COC1CCN(c2ccc(NC(=O)C3CC3)cc2C(F)(F)F)CC1`: -4.49%; `N#CCCN(Cc1cccnc1)C(=O)c1cc(Cl)c[nH]1`: -7.86%.
Next, `Cc1cnn(CC(C)NCc2ccc(C#N)cc2F)c1` (configuration not stated): -4.59%; `CC(C)N(C(=O)Cn1nnnc1CCc1ccccc1)C(C)C`: 10.7%; `O=C(Nc1nncs1)C1CSCN1C(=O)C1CCCC1` (configuration not stated): -3.88%.
Next, `Brc1csc(-c2noc(C3COCCO3)n2)c1` (configuration not stated): 0.61%; `Cc1ccc(S(=O)(=O)Nc2ccc(C)c(C(=O)O)c2)s1`: -0.348%; `COCCNC(=O)N1CCSC2(CCCCC2)C1`: -4.21%.
For the compound `Cc1ccc(N2CCC(Nc3ccc4nnc(C)n4n3)CC2)nc1`, the cytotoxicity at 70.5 h was -1.55%.
As to `CC(C)(C)c1nc(CN(Cc2ccccc2Cl)C2CCCC2)no1`, the cytotoxicity at 70.5 h was -2.25%.
Next, `CCc1cc(N2CCC(Nc3ccc4nnc(C)n4n3)CC2)ncn1`: 2.09%.
Turning to `O=C(c1cc[nH]n1)N1CCc2cc(Br)sc2C1`, the cytotoxicity at 70.5 h turned out to be 15.1%.
For `O=S(=O)(Cc1ccccc1)CC(O)Cn1cccn1` (configuration not stated), the cytotoxicity at 70.5 h is -2.14%.
In the case of `CC(=O)NCCNC(=O)Nc1cc(C(C)(C)C)sc1C#N`, the cytotoxicity at 70.5 h is -1.29%.
Consider `O=C(c1ccc(=O)[nH]n1)N1CCCC1C1CCCC1` (configuration not stated), for which the cytotoxicity at 70.5 h was -0.243%.
Next, `CCc1ncnc(N2CCCC(c3cc(C(N)=O)[nH]n3)C2)c1F` (configuration not stated): -3.89%; `CC(C)c1cc(Br)ccc1NC(=O)NC(C)(CO)CO`: -5%; `CCOCCSc1nnc(Cc2ccccc2F)o1`: -0.117%.
Turning to `Cc1cnn(CC(C)NCc2cccc(C#N)c2)c1` (configuration not stated), the cytotoxicity at 70.5 h stood at 2.17%.
Next, `Cc1cnn(CC(C)NCc2cc(C#N)ccc2F)c1` (configuration not stated): -5.57%.
On to `COCCOCCSc1nnc(Cc2ccccc2F)o1`, for which the cytotoxicity at 70.5 h is -4.09%.
Then `COc1ccc(C(C)NCc2ccnn2C)cc1Cn1cccn1` (configuration not stated), with -6.58%; and `CN1CCOC(CNCC(=O)NCCC2=CCCCC2)C1` (configuration not stated), with 4.71%.
Then `CCOC(=O)[C@H]1CNC[C@H]1C(=O)OCC`, with -2.7%; and `COCc1nc(-c2ccnc(N3CCNCC3)n2)no1`, with 2.75%.
On to `CC(C)Cc1nc(-c2ccnc(N3CCNCC3)n2)no1`, for which the cytotoxicity at 70.5 h was -7.21%.
Next, `O=c1[nH]c2ncccc2n1C1CCNCC1`: -11%; `CCn1nc(C)c(CN(CCCOC)Cc2ccccn2)c1C`: 8.89%; `Cc1c[nH]nc1C1CCCN1Cc1ncc[nH]1` (configuration not stated): -2.22%.
